pIC50: −log10 of the molar value.
target: T1, wildtype HIV-1 protease (Human immunodeficiency virus type 1 group M subtype B, UniProt P04585); assay: Assay for inhibition of microbial expressed HIV protease (Pepcleav); assay type: biochemical; conditions: wild type HIV-1 protease 20 pM, peptide substrate 400 micromolar, pH 5.5; mean of at least two independent experiments
T1 construct: preincubated with the HIV-1 protease (wild type) enzyme in assay buffer; made in house; host or cells: Escherichia coli
Method: Assay for Inhibition of Microbial Expressed HIV Protease (“Pepcleav”)
Studies of the inhibition of the wildtype HIV-1 protease (which was expressed in Escherichia coli) were carried out with a peptide substrate [Val-Ser-Gln-Asn-(βnaphtyl)Ala-Pro-Ile-Val (SEQ ID NO 1)]. The inhibitor was first preincubated with the HIV-1 protease (wild type) enzyme in assay buffer (50 mM sodium acetate, pH 5.5, 100 mM NaCl, and 0.1% BSA) for 30 minutes at room temperature. Substrate was added to 400 micromolar in a total volume of 20 microliters containing 20 picomolar HIV-1 protease (final) and the reaction is incubated for 1 hour at 30° C. The reaction was quenched with the addition of formic acid and indinavir to 0.012% and 150 nM final concentrations, respectively. Product formation was determined after separation of product and substrate on a Zorbax Eclipse XDB-C18 column connected to an API 4000 mass spectrometer (Applied Biosystems) with multiple reaction monitoring (transitions were 644.5/428.9 and 615.4/422.2 (M1/M3) for product and indinavir respectively). The extent of inhibition of the reaction was determined from the peak area of the products.

Row | SMILES | pIC50
1 | N[C@H](C(=O)Nc1cncc(F)c1CC[C@@H]1CNC[C@@H](CSc2ccc(Cl)cc2)O1)C(c1ccc(F)cc1)c1ccc(F)cc1 [Example 104, (S)-2-amino-N-(4-(2-((2R,6S)-6-(((4-chlorophenyl)thio)methyl)morpholin-2-yl)ethyl)-5-fluoropyridin-3-yl)-3,3-bis(4-fluorophenyl)propanamide] | 9.55
2 | COC(=O)N[C@H](C(=O)Nc1ccccc1CCC1CNC[C@@H](COc2ccccc2-c2cc[nH]n2)O1)C(c1ccccc1)c1ccccc1 (stereo in doubt) [Example 110, Nα-(methoxycarbonyl)-β-phenyl-N-(2-{2-[(2R,6S)-6-{[2-(1H-pyrazol-3-yl)phenoxy]methyl}morpholin-2-yl]ethyl}phenyl)-L-phenylalaninamide] | 6.60
3 | COC(=O)N[C@H](C(=O)Nc1ccccc1CC[C@@H]1CNC[C@@H](COc2cccc3nn[nH]c23)O1)C(c1ccccc1)c1ccccc1 [Example 40, N-[2-(2-{(2R,6S)-6-[(1H-benzotriazol-7-yloxy)methyl]morpholin-2-yl}ethyl)phenyl]-Na-(methoxycarbonyl)-b-phenyl-L-phenylalaninamide] | 7.17
4 | COC(=O)N[C@H](C(=O)Nc1ccccc1CC[C@@H]1CNC[C@@H](CSc2cccc(Cl)c2)O1)C(c1ccccc1)c1ccccc1 [Example 18, methyl N-[(1S)-1-benzhydryl-2-[[2-[2-[(2R,6S)-6-[(3-chlorophenyl)sulfanylmethyl]morpholin-2-yl]ethyl]phenyl]amino]-2-oxo-ethyl]carbamate] | 8.72
5 | COC(=O)N[C@H](C(=O)Nc1ccccc1CC[C@@H]1CNC[C@@H](CSc2ccc(Br)cc2)O1)C(c1ccccc1)c1ccccc1 [Example 8, methyl N-[(1S)-1-benzhydryl-2-[[2-[2-[(2R,6S)-6-[(4-bromophenyl)sulfanylmethyl]morpholin-2-yl]ethyl]phenyl]amino]-2-oxo-ethyl]carbamate] | 8.68
6 | COC(=O)N[C@H](C(=O)Nc1ccccc1CC[C@@H]1CNC[C@@H](CSc2ccc(Cl)cc2)O1)C(c1ccccc1)c1ccccc1 [Example 7, methyl N-[(1S)-1-benzhydryl-2-[[2-[2-[(2R,6S)-6-[(4-chlorophenyl)sulfanylmethyl]morpholin-2-yl]ethyl]phenyl]amino]-2-oxo-ethyl]carbamate] | 8.70
7 | COC(=O)N[C@H](C(=O)Nc1ccccc1CC[C@@H]1CNC[C@@H](CSc2ccc(Br)cc2F)O1)C(c1ccccc1)c1ccccc1 [Example 27, methyl N-[(1S)-1-benzhydryl-2-[[2-[2-[(2R,6S)-6-[(4-bromo-2-fluoro-phenyl)sulfanylmethyl]morpholin-2-yl]ethyl]phenyl]amino]-2-oxo-ethyl]carbamate] | 9.28
8 | COC(=O)N[C@H](C(=O)Nc1ccccc1CC[C@@H]1CNC[C@@H](CSc2ccc(C#N)cc2)O1)C(c1ccccc1)c1ccccc1 [Example 22, methyl N-[(1S)-1-benzhydryl-2-[[2-[2-[(2R,6S)-6-[(4-cyanophenyl)sulfanylmethyl]morpholin-2-yl]ethyl]phenyl]amino]-2-oxo-ethyl]carbamate] | 8.96
9 | COC(=O)N[C@H](C(=O)Nc1ccccc1CC[C@@H]1CNC[C@@H](COc2cccnc2C)O1)C(c1ccccc1)c1ccccc1 [Example 50, N-α-(methoxycarbonyl)-N-(2-{2-[(2R,6S)-6-{[(2-methylpyridin-3-yl)oxy]methyl}morpholin-2-yl]ethyl}phenyl)-β-phenyl-L-phenylalaninamide] | 6.89
10 | COC(=O)N[C@H](C(=O)Nc1ccccc1CC[C@@H]1CNC[C@@H](c2nc3cc(C)c(C)cc3[nH]2)O1)C(c1ccccc1)c1ccccc1 [Example 112, N-(2-{2-[(2R,6S)-6-(5,6-dimethyl-1H-benzimidazol-2-yl)morpholin-2-yl]ethyl}phenyl)-Nα-(methoxycarbonyl)-β-phenyl-L-phenylalaninamide] | 6.07
11 | COC(=O)N[C@H](C(=O)Nc1ccccc1CC[C@@H]1CNC[C@@H](COc2ccc(S(C)(=O)=O)cc2)O1)C(c1ccccc1)c1ccccc1 [Example 16, methyl N-[(1S)-1-benzhydryl-2-[[2-[2-[(2R,6S)-6-[(4-methylsulfonylphenoxy)methyl]morpholin-2-yl]ethyl]phenyl]amino]-2-oxo-ethyl]carbamate] | 7.72
12 | COC(=O)N[C@H](C(=O)Nc1ccccc1CC[C@@H]1CNC[C@@H](CSc2ccc(Cl)cc2)O1)[C@@H](c1ccccc1)c1cccnc1 [Example 66, (βS)—N-(2-{2-[(2R,6S)-6-{[(4-chlorophenyl)sulfanyl]methyl}morpholin-2-yl]ethyl}phenyl)-Nα-(methoxycarbonyl)-β-pyridin-3-yl-L-phenylalaninamide] | 9.70
13 | COC(=O)N[C@@H](C(=O)Nc1ccccc1CC[C@@H]1CNC[C@@H](CSc2ccc(Cl)cc2)O1)[C@H](c1ccccc1)c1ccncc1 [Example 70, (βR)-N-(2-{2-[(2R,6S)-6-{[(4-chlorophenyl)sulfanyl]methyl}morpholin-2-yl]ethyl}phenyl)-Nα-(methoxycarbonyl)-β-pyridin-4-yl-D-phenylalaninamide] | 9.13
14 | COC(=O)N[C@H](C(=O)Nc1ccccc1CC[C@@H]1CNC[C@@H](CCc2ccc(C#N)cc2)O1)C(c1ccccc1)c1ccccc1 [Example 63, N-[2-(2-{(2R,6R)-6-[2-(4-cyanophenyl)ethyl]morpholin-2-yl}ethyl)phenyl]-N-α-(methoxycarbonyl)-β-phenyl-L-phenylalaninamide] | 8.06
15 | COC(=O)N[C@H](C(=O)Nc1cncnc1CC[C@@H]1CNC[C@@H](COc2ccc(C#N)cc2)O1)C(c1ccccc1)c1ccccc1 [Example 79, N-[4-(2-{(2R,6S)-6-[(4-cyanophenoxy)methyl]morpholin-2-yl}ethyl)pyrimidin-5-yl]-Nα-(methoxycarbonyl)-β-phenyl-L-phenylalaninamide] | 6.92
16 | COC(=O)N[C@H](C(=O)Nc1ccccc1CC[C@@H]1CNC[C@@H](CSc2ccc(Cl)cc2)O1)[C@@H](c1ccccc1)c1ccnc2ccccc12 [Example 68, methyl[(2S,3S)-1-[(2-{2-[(2R,6S)-6-{[(4-chlorophenyl)sulfanyl]methyl}morpholin-2-yl]ethyl}phenyl)amino]-1-oxo-3-phenyl-3-(quinolin-4-yl)propan-2-yl]carbamate] | 10.52
17 | COC(=O)N[C@H](C(=O)NCCCC1CNC[C@@H](CSc2ccc(Cl)cc2)O1)C(c1ccccc1)c1ccccc1 (stereo partly drawn) [Example 2, methyl N-[(1S)-1-benzhydryl-2-[3-[(6S)-6-[(4-chlorophenyl)sulfanylmethyl]morpholin-2-yl]propylamino]-2-oxo-ethyl]carbamate] | 6.52
18 | N[C@H](C(=O)Nc1cncc(F)c1CC[C@@H]1CNCC2(CCCC2)O1)C(c1ccccc1)c1ccccc1 [Example 131, N-(5-fluoro-4-{2-[(7R)-6-oxa-9-azaspiro[4.5]dec-7-yl]ethyl}pyridin-3-yl)-β-phenyl-L-phenylalaninamide] | 6.52
19 | N[C@@H](C(=O)Nc1cncc(F)c1CC[C@@H]1CNC[C@@H](CSc2ccc(Cl)cc2)O1)C(c1ccc(F)cc1)c1ccc(F)cc1 [Example 122, N-(4-{2-[(2R,6S)-6-{[(4-chlorophenyl)sulfanyl]methyl}morpholin-2-yl]ethyl}-5-fluoropyridin-3-yl)-4-fluoro-β-(4-fluorophenyl)-D-phenylalaninamide] | 8.05
20 | COC(=O)N[C@H](C(=O)NCCCC1CNC[C@@H](CCc2ccc(Cl)cc2)O1)C(c1ccccc1)c1ccccc1 (stereo partly drawn) [Example 107, N-(3-{(6R)-6-[2-(4-chlorophenyl)ethyl]morpholin-2-yl}propyl)-Nα-(methoxycarbonyl)-β-phenyl-L-phenylalaninamide] | 6.00
21 | COC(=O)N[C@H](C(=O)Nc1ccccc1CC[C@@H]1CNC[C@@H](CSc2nnc(-c3ccncc3)o2)O1)C(c1ccccc1)c1ccccc1 [Example 34, methyl N-[(1S)-1-benzhydryl-2-oxo-2-[[2-[2-[(2R,6S)-6-[[5-(4-pyridyl)-1,3,4-oxadiazol-2-yl]sulfanylmethyl]morpholin-2-yl]ethyl]phenyl]amino]ethyl] carbamate] | 9.38
22 | COC(=O)N[C@H](C(=O)Nc1ccccc1CC[C@@H]1CNC[C@@H](CSc2ncnc3[nH]ncc23)O1)C(c1ccccc1)c1ccccc1 [Example 35, methyl N-[(1S)-1-benzhydryl-2-oxo-2-[[2-[2-[(2R,6S)-6-(1H-pyrazolo[3,4-d]pyrimidin-4-ylsulfanylmethyl)morpholin-2-yl]ethyl]phenyl]amino]ethyl] carbamate] | 8.68
23 | COC(=O)N[C@H](C(=O)Nc1ccccc1CC[C@@H]1CNC[C@@H](COCc2ccc(Cl)cc2)O1)C(c1ccccc1)c1ccccc1 [Example 59, methyl N-[(1S)-1-benzhydryl-2-[[2-[2-[(2R,6S)-6-[(4-chlorophenyl)methoxymethyl]morpholin-2-yl]ethyl]phenyl]amino]-2-oxo-ethyl]carbamate] | 7.21
24 | COC(=O)N[C@H](C(=O)Nc1nccnc1CC[C@@H]1CNC[C@@H](CSc2ccc(Cl)cc2)O1)C(c1ccccc1)c1ccccc1 [Example 83, methyl N-[(1S)-1-benzhydryl-2-[[3-[2-[(2R,6S)-6-[(4-chlorophenyl)sulfanylmethyl]morpholin-2-yl]ethyl]pyrazin-2-yl]amino]-2-oxo-ethyl]carbamate] | 7.57

From patent US9994587B2, “HIV protease inhibitors” (priority 2014, dated 2018)
